Data as given in PubChem BioAssay AID248 (DTP/NCI, 2004).
Toxic doses and inconclusive results are not listed. No stated cut-off is given here; in the data, active means T/C of 150% or more; inactive means T/C below 125%.

Tested on: L1210 leukemia ip in BDF1 mice, survival T/C
Assay: NCI In Vivo Anticancer Drug Screen. Data for tumor model L1210 Leukemia (intraperitoneal) in B6D2F1 (BDF1) mice
Conditions: endpoint: mean survival time, higher = longer survival
Procedure, shortened: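 In this screen, tumor-bearing mice given compound are compared to those given vehicle, and their survival values are reported as a treated-to-control quotient.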

[1] = dose: 100.0 mg/kg/injection, schedule: Q04DX003 (ip), vehicle: Klucel (hydroxypropylcellulose) (HPC)
[2] = dose: 200.0 mg/kg/injection, schedule: Q04DX003 (ip), vehicle: Klucel (hydroxypropylcellulose) (HPC)
[3] = dose: 400.0 mg/kg/injection, schedule: Q04DX003 (ip), vehicle: Klucel (hydroxypropylcellulose) (HPC)
[4] = dose: 100.0 mg/kg/injection, schedule: Q01DX009 (ip), vehicle: saline
[5] = dose: 200.0 mg/kg/injection, schedule: Q01DX009 (ip), vehicle: saline
[6] = dose: 100.0 mg/kg/injection, schedule: Q04DX002 (ip), vehicle: Klucel (hydroxypropylcellulose) (HPC)
[7] = dose: 100.0 mg/kg/injection, schedule: Q01DX009 (ip), vehicle: saline with Tween-80
[8] = dose: 200.0 mg/kg/injection, schedule: Q01DX009 (ip), vehicle: saline with Tween-80
[9] = dose: 400.0 mg/kg/injection, schedule: Q01DX009 (ip), vehicle: saline with Tween-80
[10] = dose: 100.0 mg/kg/injection, schedule: Q01DX009 (ip), vehicle: Klucel (hydroxypropylcellulose) (HPC)
[11] = dose: 200.0 mg/kg/injection, schedule: Q01DX009 (ip), vehicle: Klucel (hydroxypropylcellulose) (HPC)
[12] = dose: 400.0 mg/kg/injection, schedule: Q01DX009 (ip), vehicle: Klucel (hydroxypropylcellulose) (HPC)
[13] = dose: 100.0 mg/kg/injection, schedule: Q01DX001 (ip), vehicle: Klucel (hydroxypropylcellulose) (HPC)
[14] = dose: 200.0 mg/kg/injection, schedule: Q01DX001 (ip), vehicle: Klucel (hydroxypropylcellulose) (HPC)
[15] = dose: 400.0 mg/kg/injection, schedule: Q01DX001 (ip), vehicle: Klucel (hydroxypropylcellulose) (HPC)
[16] = dose: 25.0 mg/kg/injection, schedule: Q04DX002 (ip), vehicle: Klucel (hydroxypropylcellulose) (HPC)
[17] = dose: 50.0 mg/kg/injection, schedule: Q04DX002 (ip), vehicle: Klucel (hydroxypropylcellulose) (HPC)
[18] = dose: 100.0 mg/kg/injection, schedule: Q04DX003 (ip), vehicle: saline with Tween-80
[19] = dose: 200.0 mg/kg/injection, schedule: Q04DX003 (ip), vehicle: saline with Tween-80
[20] = dose: 100.0 mg/kg/injection, schedule: Q01DX001 (ip), vehicle: saline
[21] = dose: 200.0 mg/kg/injection, schedule: Q01DX001 (ip), vehicle: saline
[22] = dose: 400.0 mg/kg/injection, schedule: Q01DX001 (ip), vehicle: saline

Measured: T/C

Nc1cc(Cl)cc2c1nc(NCCO)c1ccccc12
inactive: [1] 97 % of control | [2] 90 % of control | [3] 98 % of control

Nc1cccc2[nH]cnc12
inactive: [4] 98 % of control | dose: 100.0 mg/kg/injection, schedule: Q04DX003 (ip), vehicle: saline 106 % of control | [5] 111 % of control | dose: 200.0 mg/kg/injection, schedule: Q04DX003 (ip), vehicle: saline 104 % of control | dose: 400.0 mg/kg/injection, schedule: Q01DX009 (ip), vehicle: saline 93 % of control | dose: 400.0 mg/kg/injection, schedule: Q04DX003 (ip), vehicle: saline 101 % of control

O=C1CCCC2=C1C(c1ccncc1)Nc1ccccc1N2 (centres undefined)
inactive: [6] 103 % of control | dose: 200.0 mg/kg/injection, schedule: Q04DX002 (ip), vehicle: Klucel (hydroxypropylcellulose) (HPC) 117 % of control | dose: 400.0 mg/kg/injection, schedule: Q04DX002 (ip), vehicle: Klucel (hydroxypropylcellulose) (HPC) 109 % of control

O=C(O)COc1ccc([N+](=O)[O-])cc1F
inactive: dose: 100.0 mg/kg/injection, schedule: Q04DX002 (ip), vehicle: other 102 % of control | dose: 200.0 mg/kg/injection, schedule: Q04DX002 (ip), vehicle: other 88 % of control | dose: 400.0 mg/kg/injection, schedule: Q04DX002 (ip), vehicle: other 91 % of control

COc1ccccc1CCCOC(=O)c1ccc([N+](=O)[O-])cc1
inactive: dose: 100.0 mg/kg/injection, schedule: Q01DX001 (ip), vehicle: saline with Tween-80 100 % of control | dose: 200.0 mg/kg/injection, schedule: Q01DX001 (ip), vehicle: saline with Tween-80 95 % of control | dose: 400.0 mg/kg/injection, schedule: Q01DX001 (ip), vehicle: saline with Tween-80 89 % of control

CN1C(=O)C2(C)CCC1c1ccccc12 (centres undefined)
inactive: dose: 100.0 mg/kg/injection, schedule: Q01DX001 (ip), vehicle: other 103 % of control | dose: 200.0 mg/kg/injection, schedule: Q01DX001 (ip), vehicle: other 103 % of control

Cc1ccc(-n2c(O)c(N=Nc3ccc(Cl)cc3)c(=O)n(-c3ccc(I)cc3)c2=S)cc1
inactive: dose: 37.5 mg/kg/injection, schedule: Q01DX001 (ip), vehicle: Klucel (hydroxypropylcellulose) (HPC) 92 % of control | dose: 75.0 mg/kg/injection, schedule: Q01DX001 (ip), vehicle: Klucel (hydroxypropylcellulose) (HPC) 97 % of control | dose: 150.0 mg/kg/injection, schedule: Q01DX001 (ip), vehicle: Klucel (hydroxypropylcellulose) (HPC) 100 % of control

CCCCCCCCC(=O)C[N+](=O)[O-]
inactive: dose: 18.8 mg/kg/injection, schedule: Q01DX009 (ip), vehicle: saline 97 % of control | dose: 18.8 mg/kg/injection, schedule: Q04DX003 (ip), vehicle: saline 106 % of control | dose: 37.5 mg/kg/injection, schedule: Q01DX009 (ip), vehicle: saline 95 % of control | dose: 37.5 mg/kg/injection, schedule: Q04DX003 (ip), vehicle: saline 95 % of control | dose: 75.0 mg/kg/injection, schedule: Q01DX001 (ip), vehicle: saline 93 % of control | dose: 75.0 mg/kg/injection, schedule: Q01DX009 (ip), vehicle: saline 99 % of control | dose: 75.0 mg/kg/injection, schedule: Q04DX003 (ip), vehicle: saline 95 % of control

CCC1CCC(NC(=O)c2ccccc2)CC1 (centres undefined)
inactive: [7] 92 % of control | [8] 94 % of control | [9] 92 % of control

Cc1cc(Cl)ccc1NC(=O)c1ccccc1
inactive: [10] 98 % of control | [1] 103 % of control | [11] 105 % of control | [2] 92 % of control | [12] 96 % of control | [3] 97 % of control

ClC1=C(Cl)C2(Cl)C(Br)C(Br)C1(Cl)C2(Cl)Cl (centres undefined)
inactive: dose: 100.0 mg/kg/injection, schedule: Q01DX009 (ip), vehicle: saline sonified 95 % of control | [1] 102 % of control | dose: 200.0 mg/kg/injection, schedule: Q01DX009 (ip), vehicle: saline sonified 96 % of control | [2] 93 % of control | dose: 400.0 mg/kg/injection, schedule: Q01DX009 (ip), vehicle: saline sonified 95 % of control | [3] 96 % of control

CC(C)(CS(C)(=O)=O)C(=O)OCC(=O)c1ccccc1
inactive: [1] 108 % of control | [2] 105 % of control | [3] 105 % of control

CCCCCCCCCCC(=O)N1CCCCC1
inactive: dose: 100.0 mg/kg/injection, schedule: Q04DX002 (ip), vehicle: saline 100 % of control | dose: 200.0 mg/kg/injection, schedule: Q04DX002 (ip), vehicle: saline 96 % of control | dose: 400.0 mg/kg/injection, schedule: Q04DX002 (ip), vehicle: saline 96 % of control

NC(=S)Cc1ccccc1
inactive: [13] 91 % of control | [14] 87 % of control | [15] 100 % of control

O=S(Sc1ccc(N(CCCl)CCCl)cc1)c1ccc(N(CCCl)CCCl)cc1 (centres undefined)
inactive: [13] 95 % of control | dose: 100.0 mg/kg/injection, schedule: Q01DX009 (ip), vehicle: gum acacia 86 % of control | [14] 108 % of control | dose: 200.0 mg/kg/injection, schedule: Q01DX009 (ip), vehicle: gum acacia 93 % of control | [15] 93 % of control | dose: 400.0 mg/kg/injection, schedule: Q01DX009 (ip), vehicle: gum acacia 122 % of control

NC(=O)C=C1c2ccccc2-c2ccccc21
inactive: dose: 25.0 mg/kg/injection, schedule: Q01DX009 (ip), vehicle: Klucel (hydroxypropylcellulose) (HPC) 97 % of control | dose: 50.0 mg/kg/injection, schedule: Q01DX009 (ip), vehicle: Klucel (hydroxypropylcellulose) (HPC) 94 % of control | [10] 96 % of control | [11] 91 % of control | [12] 89 % of control

Cc1cc(C)c2c(c1)CC2NC(=O)c1ccccc1 (centres undefined)
inactive: [16] 100 % of control | [17] 106 % of control | [6] 95 % of control

CC(C)c1cccc(O)c(=O)c1
inactive: [18] 95 % of control | [19] 103 % of control

CCCCOC(=N)N(CCCC)CC(C)(C)[N+](=O)[O-]
inactive: dose: 44.0 mg/kg/injection, schedule: Q01DX Z (ip), vehicle: methylcellulose (MC) 98 % of control | dose: 100.0 mg/kg/injection, schedule: Q01DX Z (ip), vehicle: methylcellulose (MC) 98 % of control

c1ccc(COc2ccc(OCc3ccccc3)cc2)cc1
inactive: dose: 50.0 mg/kg/injection, schedule: Q01DX009 (ip), vehicle: saline 93 % of control | [4] 98 % of control | [1] 87 % of control | [5] 93 % of control | [2] 105 % of control | [3] 94 % of control

NC(=O)c1cccn1-c1ccc2ncccc2c1
inactive: [16] 89 % of control | [17] 92 % of control | [6] 86 % of control

CC(c1ccc([N+](=O)[O-])cc1)n1cnc2c(N(CCO)CCO)ncnc21 (centres undefined)
inactive: [20] 104 % of control | [21] 103 % of control | [22] 103 % of control

CCOC(=O)C(C)(C)[Si](C)(C)C
inactive: dose: 50.0 mg/kg/injection, schedule: Q01DX001 (ip), vehicle: saline 97 % of control | [20] 103 % of control | [21] 97 % of control | [22] 97 % of control

C1=CC2C3CC(OCCOC4CC5CC4C4CC=CC54)C(C3)C2C1 (centres undefined)
inactive: [7] 97 % of control | [18] 98 % of control | [8] 93 % of control | [19] 100 % of control | [9] 104 % of control | dose: 400.0 mg/kg/injection, schedule: Q04DX003 (ip), vehicle: saline with Tween-80 95 % of control
